Experiment: stability of amorphous form under normal stability conditions
Assay type: physicochemical
Source text: Therefore, there is no physical change observed from amorphous form to crystalline form during the stability.
In further aspect, the stable amorphous vortioxetine free base or vortioxetine hydrobromide can be stored under nitrogen atmosphere and packed in a double polythene bag tied with a thread, keeping primary packing containing amorphous vortioxetine or vortioxetine hydrobromide inside a black color polyethylene bag containing oxygen busters and sealing it, placing above the double polyethylene bag inside a triple laminated bag optionally containing oxygen busters and sealing it, and placing the sealed triple laminated bag inside a closed high density polyethylene (HDPE) container and storing in controlled environment chamber at 25° C. and/or 40° C.

stability of amorphous form (physical change from amorphous form to crystalline form): stable under normal stability conditions
Compound: Cc1ccc(Sc2ccccc2N2CCNCC2)c(C)c1 [amorphous vortioxetine free base, 1-{2-[(2,4-dimethylphenyl)sulfanyl]phenyl}piperazine]

Reference: patent US10414741B2, “Amorphous vortioxetine and salts thereof” (CADILA HEALTHCARE LIMITED, priority 2013, dated 2019)
